Patent publication US20080009418A1, “Selective Inhibitors” (Alchemia LTD., priority 2004, published 2008)

Key:
Human δ-opioid (DOP) = target: T1, Human δ-opioid (DOP) (Homo sapiens, UniProt P41143); test: Radioligand binding, human δ-opioid (DOP) membranes, FlashPlate, [3H]-Bremazocine; settings: compound at 10 μM; for A1: inhibition of radioligand binding: [3H]-Bremazocine, human DOP membranes
T1 construct: purchased Perkin Elmer Biosignal
Method in brief: (§1)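 Cloned human receptor membranes were coated onto FlashPlate wells and incubated with radioligand and compound (added from a 0.5 mM DMSO daughter plate) for 1 hour at room temperature in the dark. Scintillation counting gave percent inhibition, with DMSO defining total and reference ligand defining non-specific binding.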

Human κ-Opioid (KOP) = target: T2, Human κ-Opioid (KOP) (Homo sapiens, UniProt P41145); test: Radioligand binding, human κ-opioid (KOP) membranes, filtration, [3H]-Diprenorphine; settings: compound at 10 μM; for A2: inhibition of radioligand binding: [3H]-Diprenorphine, human KOP membranes
T2 construct: purchased Perkin Elmer Biosignal
T2 sequence (P41145 whole entry): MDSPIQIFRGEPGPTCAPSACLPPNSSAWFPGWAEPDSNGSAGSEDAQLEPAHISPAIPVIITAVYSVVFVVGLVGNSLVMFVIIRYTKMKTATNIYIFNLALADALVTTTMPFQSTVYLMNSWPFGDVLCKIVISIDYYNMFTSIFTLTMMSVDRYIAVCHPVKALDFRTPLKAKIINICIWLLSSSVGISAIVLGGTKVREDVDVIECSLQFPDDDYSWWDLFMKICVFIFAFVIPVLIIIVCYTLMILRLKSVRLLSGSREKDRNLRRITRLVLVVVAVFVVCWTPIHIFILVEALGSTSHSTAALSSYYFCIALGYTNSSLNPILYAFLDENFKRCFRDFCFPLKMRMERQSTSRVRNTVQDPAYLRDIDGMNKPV
Method in brief: (§2)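 Filtration binding on cloned human receptor membranes (1 Unit/well), [125I]-Substance P for NK1 and [3H]-Diprenorphine for KOP, 1 h at room temperature. Filters PEI-presoaked, washed with cold 50 mM Tris-HCl pH 7.4, counted by scintillation; percent inhibition calculated, reference ligand defining non-specific binding.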

Human Melanocortin (MC3) = target: T3, Human Melanocortin (MC3) (Homo sapiens, UniProt P41968); test: Radioligand binding, human melanocortin MC3 membranes, FlashPlate, [125I]-NDP-αMSH; settings: compound at 10 μM; for A3: inhibition of radioligand binding: [125I]-NDP-αMSH, human MC3 membranes
T3 construct: purchased Perkin Elmer Biosignal
T3 sequence (P41968 whole entry): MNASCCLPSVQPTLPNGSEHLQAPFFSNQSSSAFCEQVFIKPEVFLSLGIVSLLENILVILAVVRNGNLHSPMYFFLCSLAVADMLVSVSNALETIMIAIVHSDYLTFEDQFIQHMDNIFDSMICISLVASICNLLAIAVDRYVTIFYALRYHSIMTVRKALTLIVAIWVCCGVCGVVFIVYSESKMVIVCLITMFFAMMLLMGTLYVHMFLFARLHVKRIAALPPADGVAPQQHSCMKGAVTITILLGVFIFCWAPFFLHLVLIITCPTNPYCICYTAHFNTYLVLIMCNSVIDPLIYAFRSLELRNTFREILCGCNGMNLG
Method in brief: as §1

Human Melanocortin (MC4) = target: T4, Human Melanocortin (MC4) (Homo sapiens, UniProt P32245); test: Radioligand binding, human melanocortin MC4 membranes, FlashPlate, [125I]-NDP-αMSH; settings: compound at 10 μM; for A4: inhibition of radioligand binding: [125I]-NDP-αMSH, human MC4 membranes
T4 construct: purchased Perkin Elmer Biosignal
T4 sequence (P32245 whole entry): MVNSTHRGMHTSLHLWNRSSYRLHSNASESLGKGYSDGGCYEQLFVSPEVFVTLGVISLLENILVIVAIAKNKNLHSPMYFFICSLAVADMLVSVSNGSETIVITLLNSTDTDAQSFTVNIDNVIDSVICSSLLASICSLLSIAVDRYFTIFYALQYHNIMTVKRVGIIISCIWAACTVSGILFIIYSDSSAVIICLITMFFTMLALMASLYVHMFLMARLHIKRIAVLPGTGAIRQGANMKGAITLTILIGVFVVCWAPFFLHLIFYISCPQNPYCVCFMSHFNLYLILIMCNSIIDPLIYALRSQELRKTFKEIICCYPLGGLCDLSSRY
Method in brief: as §1

Human melanocortin (MC5) = target: T5, Human melanocortin (MC5) (Homo sapiens, UniProt P33032); test: Radioligand binding, human melanocortin MC5 membranes, FlashPlate, [125I]-NDP-αMSH; settings: compound at 10 μM; for A5: inhibition of radioligand binding: [125I]-NDP-αMSH, human MC5 membranes
T5 construct: purchased Perkin Elmer Biosignal
T5 sequence (P33032 whole entry): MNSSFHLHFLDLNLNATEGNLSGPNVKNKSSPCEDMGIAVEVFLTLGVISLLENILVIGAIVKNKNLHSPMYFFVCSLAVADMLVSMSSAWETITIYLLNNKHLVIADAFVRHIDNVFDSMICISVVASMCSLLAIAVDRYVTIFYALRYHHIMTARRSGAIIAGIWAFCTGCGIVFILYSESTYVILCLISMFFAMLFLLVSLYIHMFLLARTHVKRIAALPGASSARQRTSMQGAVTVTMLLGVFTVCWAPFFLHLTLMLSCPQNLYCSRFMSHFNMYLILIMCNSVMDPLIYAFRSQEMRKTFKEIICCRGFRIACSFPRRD
Method in brief: as §1

[1] = target: T6, Human melanin-concentrating hormone (MCH1) (Homo sapiens, UniProt Q99705); test: Radioligand binding, human melanin-concentrating hormone MCH1 membranes, FlashPlate, [125I]-S36057; settings: compound at 10 μM; for A6: inhibition of radioligand binding: [125I]-S36057, human MCH1 membranes
T6 construct: purchased Perkin Elmer Biosignal
T6 sequence (Q99705 whole entry): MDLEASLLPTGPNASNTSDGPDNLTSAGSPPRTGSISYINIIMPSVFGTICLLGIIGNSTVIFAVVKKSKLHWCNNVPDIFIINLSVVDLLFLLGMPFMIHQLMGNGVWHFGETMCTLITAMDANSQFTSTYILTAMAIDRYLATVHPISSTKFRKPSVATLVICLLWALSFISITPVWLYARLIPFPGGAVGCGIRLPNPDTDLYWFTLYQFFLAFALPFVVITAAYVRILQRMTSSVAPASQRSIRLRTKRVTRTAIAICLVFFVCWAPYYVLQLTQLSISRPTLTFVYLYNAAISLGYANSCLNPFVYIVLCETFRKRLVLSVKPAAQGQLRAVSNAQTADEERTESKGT
Method in brief: as §1

Human μ-opioid (MOP) = target: T7, Human μ-opioid (MOP) (Homo sapiens, UniProt P35372); test: Radioligand binding, human μ-opioid (MOP) membranes, FlashPlate, [3H]-Naloxone; settings: compound at 10 μM; for A7: inhibition of radioligand binding: [3H]-Naloxone, human MOP membranes
T7 construct: purchased Perkin Elmer Biosignal
T7 sequence (P35372 whole entry): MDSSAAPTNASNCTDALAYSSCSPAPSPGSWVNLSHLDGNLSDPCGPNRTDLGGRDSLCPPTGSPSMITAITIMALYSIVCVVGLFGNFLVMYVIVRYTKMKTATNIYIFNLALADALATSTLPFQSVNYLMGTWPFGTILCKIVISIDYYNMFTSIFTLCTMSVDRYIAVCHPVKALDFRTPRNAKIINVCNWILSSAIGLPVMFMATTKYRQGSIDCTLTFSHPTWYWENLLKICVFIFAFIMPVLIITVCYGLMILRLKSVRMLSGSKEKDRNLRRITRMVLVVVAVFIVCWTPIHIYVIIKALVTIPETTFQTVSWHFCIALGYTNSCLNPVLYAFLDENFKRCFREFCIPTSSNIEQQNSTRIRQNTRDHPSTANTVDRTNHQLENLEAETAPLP
Method in brief: as §1

Human neurokinin (NK1) = target: T8, Human neurokinin (NK1) (Homo sapiens, UniProt P25103); test: Radioligand binding, human neurokinin NK1 membranes, filtration, [125I]-Substance P; settings: compound at 10 μM; for A8: inhibition of radioligand binding: [125I]-Substance P, human NK1 membranes
T8 construct: purchased Perkin Elmer Biosignal
T8 sequence (P25103 whole entry): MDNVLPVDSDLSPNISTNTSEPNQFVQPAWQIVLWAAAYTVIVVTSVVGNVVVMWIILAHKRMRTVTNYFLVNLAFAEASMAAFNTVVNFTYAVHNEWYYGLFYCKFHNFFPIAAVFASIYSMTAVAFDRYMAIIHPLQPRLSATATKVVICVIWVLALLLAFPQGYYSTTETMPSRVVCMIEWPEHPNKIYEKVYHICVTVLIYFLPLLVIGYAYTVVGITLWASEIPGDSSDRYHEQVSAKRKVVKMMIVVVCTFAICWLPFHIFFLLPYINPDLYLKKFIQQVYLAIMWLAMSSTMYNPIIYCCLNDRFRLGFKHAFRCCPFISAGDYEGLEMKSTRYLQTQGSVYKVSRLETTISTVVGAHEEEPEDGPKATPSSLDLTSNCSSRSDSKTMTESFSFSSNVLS
Method in brief: as §2

[2] = target: T9, Human neuropeptide Y (NPY-Y1) (Homo sapiens, UniProt P25929); test: Radioligand binding, human neuropeptide Y NPY-Y1 membranes, FlashPlate, [125I]-PYY; settings: compound at 10 μM, human NPY-Y1 membranes; for A9: inhibition of radioligand binding: [125I]-PYY
T9 construct: purchased Perkin Elmer Biosignal
T9 sequence (P25929 1-384): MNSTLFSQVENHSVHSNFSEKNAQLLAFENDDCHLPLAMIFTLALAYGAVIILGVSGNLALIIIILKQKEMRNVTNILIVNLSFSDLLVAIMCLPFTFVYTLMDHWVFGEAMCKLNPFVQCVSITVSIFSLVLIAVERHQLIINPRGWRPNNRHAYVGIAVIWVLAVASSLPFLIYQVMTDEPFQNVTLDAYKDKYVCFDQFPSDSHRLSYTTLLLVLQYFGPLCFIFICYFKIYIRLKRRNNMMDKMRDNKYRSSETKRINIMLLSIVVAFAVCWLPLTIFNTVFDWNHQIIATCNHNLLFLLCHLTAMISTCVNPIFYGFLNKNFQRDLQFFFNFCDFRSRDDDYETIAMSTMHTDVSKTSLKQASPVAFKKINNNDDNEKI
Method in brief: as §1

Human opioid (ORL1) = target: T10, Human opioid (ORL1) (Homo sapiens, UniProt P41146); test: Radioligand binding, human opioid ORL1 membranes, FlashPlate, [125I]-Nociceptin; settings: compound at 10 μM, human ORL1 membranes; for A10: inhibition of radioligand binding: [125I]-Nociceptin
T10 construct: purchased Perkin Elmer Biosignal
T10 sequence (P41146 whole entry): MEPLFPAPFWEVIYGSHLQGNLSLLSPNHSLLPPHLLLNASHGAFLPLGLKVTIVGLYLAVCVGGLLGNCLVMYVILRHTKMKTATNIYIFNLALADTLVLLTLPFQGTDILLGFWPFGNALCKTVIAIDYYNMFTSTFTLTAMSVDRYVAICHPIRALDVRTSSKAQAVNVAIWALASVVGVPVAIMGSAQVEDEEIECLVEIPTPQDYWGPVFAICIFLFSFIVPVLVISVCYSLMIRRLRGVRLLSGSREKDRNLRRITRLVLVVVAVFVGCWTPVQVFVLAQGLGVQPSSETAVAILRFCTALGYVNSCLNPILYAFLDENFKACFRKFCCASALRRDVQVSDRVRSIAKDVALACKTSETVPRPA
Method in brief: as §1

Mouse urotensin (mUR2) = target: T11, Mouse urotensin (mUR2) (Mus musculus, UniProt Q8VIH9); test: Radioligand binding, mouse urotensin mUR2 membranes, FlashPlate, [125I]-Urotensin II; settings: compound at 10 μM; for A11: inhibition of radioligand binding: [125I]-Urotensin II, mouse mUR2 membranes
T11 construct: purchased Perkin Elmer Biosignal
T11 sequence (Q8VIH9 1-385): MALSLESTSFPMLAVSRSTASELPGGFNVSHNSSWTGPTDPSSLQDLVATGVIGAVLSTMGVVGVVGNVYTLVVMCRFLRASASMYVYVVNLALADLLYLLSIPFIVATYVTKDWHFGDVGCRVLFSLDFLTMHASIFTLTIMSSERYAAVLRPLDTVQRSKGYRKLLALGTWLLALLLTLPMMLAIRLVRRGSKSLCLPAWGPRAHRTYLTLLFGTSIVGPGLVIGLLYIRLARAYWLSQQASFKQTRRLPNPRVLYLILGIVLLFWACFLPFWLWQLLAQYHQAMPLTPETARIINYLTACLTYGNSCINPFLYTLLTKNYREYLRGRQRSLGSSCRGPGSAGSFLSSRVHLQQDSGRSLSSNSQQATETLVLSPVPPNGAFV
Method in brief: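 Cloned mouse urotensin (mUR2) receptor membranes from Perkin Elmer Biosignal were immobilized in FlashPlate microplates using a proprietary coating. Each well got 19.5 μl buffer, then 0.5 μl of DMSO, reference ligand, or compound. Adding 5 μl of [125I]-Urotensin II, diluted to 5× final concentration in binding buffer, started binding. Plates were sealed with TopSeal-A and incubated 1 hour at room temperature in the dark. Wells were counted for 30 seconds each on a TopCount after a 60-second delay, and percentage inhibition was calculated.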

T1 sequence (P41143 whole entry): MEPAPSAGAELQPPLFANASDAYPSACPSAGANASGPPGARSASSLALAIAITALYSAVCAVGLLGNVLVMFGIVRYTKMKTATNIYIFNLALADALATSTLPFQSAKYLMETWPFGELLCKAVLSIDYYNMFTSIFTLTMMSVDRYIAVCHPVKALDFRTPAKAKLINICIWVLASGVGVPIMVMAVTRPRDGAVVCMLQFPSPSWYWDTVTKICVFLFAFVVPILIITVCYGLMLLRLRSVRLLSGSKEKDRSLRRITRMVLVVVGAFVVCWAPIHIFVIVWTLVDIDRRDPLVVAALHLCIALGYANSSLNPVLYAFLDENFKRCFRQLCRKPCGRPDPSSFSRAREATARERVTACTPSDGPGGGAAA

Compound | A1: inhibition of radioligand binding (Human δ-opioid (DOP)) | A2: inhibition of radioligand binding (Human κ-Opioid (KOP)) | A3: inhibition of radioligand binding (Human Melanocortin (MC3)) | A4: inhibition of radioligand binding (Human Melanocortin (MC4)) | A5: inhibition of radioligand binding (Human melanocortin (MC5)) | A6: inhibition of radioligand binding [1] | A7: inhibition of radioligand binding (Human μ-opioid (MOP)) | A8: inhibition of radioligand binding (Human neurokinin (NK1)) | A9: inhibition of radioligand binding [2] | A10: inhibition of radioligand binding (Human opioid (ORL1)) | A11: inhibition of radioligand binding (Mouse urotensin (mUR2)) | other results
N=C(N)NCC(=O)NC1C(OCc2ccc(-c3ccccc3)cc2)OC(COCc2ccc3ccccc3c2)C(O)C1OCc1ccc(Cl)cc1 (stereo not drawn) [compound 399] | − (“−” indicates less than 50% inhibition at 10 μM) | − (“−” indicates less than 50% inhibition at 10 μM) | + (“+” indicates greater than 50% inhibition at 10 μM) | + (“+” indicates greater than 50% inhibition at 10 μM) | + (“+” indicates greater than 50% inhibition at 10 μM) | − (“−” indicates less than 50% inhibition at 10 μM) | − (“−” indicates less than 50% inhibition at 10 μM) | + (“+” indicates greater than 50% inhibition at 10 μM) | − (“−” indicates less than 50% inhibition at 10 μM) | − (“−” indicates less than 50% inhibition at 10 μM) | − (“−” indicates less than 50% inhibition at 10 μM) | 
COC[C@H]1OC(OCc2ccc(Cl)cc2)[C@H](NC(=O)CCNC(=N)N)[C@@H](OCc2ccccc2)[C@@H]1O (stereo partly drawn) [compound 34] |  |  |  |  |  |  |  |  |  |  |  | A1 radioligand binding inhibition (Human δ-opioid (DOP); human δ-opioid (DOP) membranes): − (“−” indicates less than 50% inhibition at 10 μM); A2 radioligand binding inhibition (Human κ-Opioid (KOP); human κ-opioid (KOP) membranes): − (“−” indicates less than 50% inhibition at 10 μM); A3 radioligand binding inhibition (Human Melanocortin (MC3); human melanocortin MC3 membranes): − (“−” indicates less than 50% inhibition at 10 μM); A4 radioligand binding inhibition (Human Melanocortin (MC4); human melanocortin MC4 membranes): − (“−” indicates less than 50% inhibition at 10 μM); A5 radioligand binding inhibition (Human melanocortin (MC5); human melanocortin MC5 membranes): − (“−” indicates less than 50% inhibition at 10 μM); A6 radioligand binding inhibition ([1]; human MCH1 membranes): − (“−” indicates less than 50% inhibition at 10 μM); A7 radioligand binding inhibition (Human μ-opioid (MOP); human μ-opioid (MOP) membranes): − (“−” indicates less than 50% inhibition at 10 μM); A8 radioligand binding inhibition (Human neurokinin (NK1); human neurokinin NK1 membranes): + (“+” indicates greater than 50% inhibition at 10 μM); A9 radioligand binding inhibition [2]: − (“−” indicates less than 50% inhibition at 10 μM); A10 radioligand binding inhibition (Human opioid (ORL1)): − (“−” indicates less than 50% inhibition at 10 μM); A11 radioligand binding inhibition (Mouse urotensin (mUR2); mouse urotensin mUR2 membranes): − (“−” indicates less than 50% inhibition at 10 μM)
NCCC(=O)NC1C(OCc2ccc3ccccc3c2)OC(COCc2ccc3ccccc3c2)C(O)C1OCc1ccc(Cl)cc1 (stereo not drawn) [compound 381] | − (“−” indicates less than 50% inhibition at 10 μM) | − (“−” indicates less than 50% inhibition at 10 μM) | + (“+” indicates greater than 50% inhibition at 10 μM) | + (“+” indicates greater than 50% inhibition at 10 μM) | + (“+” indicates greater than 50% inhibition at 10 μM) | − (“−” indicates less than 50% inhibition at 10 μM) | − (“−” indicates less than 50% inhibition at 10 μM) | + (“+” indicates greater than 50% inhibition at 10 μM) | − (“−” indicates less than 50% inhibition at 10 μM) | − (“−” indicates less than 50% inhibition at 10 μM) | − (“−” indicates less than 50% inhibition at 10 μM) | 
